PubChem BioAssay AID602264 (The Scripps Research Institute Molecular Screening Center, 2012)
“And” between values parts separate entries of the source, which are not always exact repeats. Equal entries are not always repeated. The source made the active and inactive calls. The rule behind the calls is not given here.

Target: Mu-type opioid receptor (Homo sapiens) + Delta-type opioid receptor (Homo sapiens) (UniProt P35372+P41143)
Assay: agonists of MOR-DOR heterodimerization, dose response, counter-screen for MC4R biased agonist project, cell-based, luminescence (AID 602264)
Details: cell-based OPRM1-OPRD1 heterodimerization

Sequence of Mu-type opioid receptor (Homo sapiens) + Delta-type opioid receptor (Homo sapiens) (P35372 whole entry, looked up): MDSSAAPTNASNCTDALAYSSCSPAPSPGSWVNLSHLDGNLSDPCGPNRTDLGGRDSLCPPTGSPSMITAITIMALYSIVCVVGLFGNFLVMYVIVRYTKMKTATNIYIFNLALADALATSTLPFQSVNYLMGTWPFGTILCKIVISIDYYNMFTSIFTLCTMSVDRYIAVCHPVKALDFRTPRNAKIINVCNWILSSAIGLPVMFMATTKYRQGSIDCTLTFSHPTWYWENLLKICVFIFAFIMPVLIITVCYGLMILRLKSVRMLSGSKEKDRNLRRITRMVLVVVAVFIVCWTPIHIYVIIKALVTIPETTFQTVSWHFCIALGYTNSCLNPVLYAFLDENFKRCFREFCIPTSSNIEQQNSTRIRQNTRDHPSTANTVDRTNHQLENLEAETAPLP
Sequence of Mu-type opioid receptor (Homo sapiens) + Delta-type opioid receptor (Homo sapiens) (P41143 whole entry, looked up): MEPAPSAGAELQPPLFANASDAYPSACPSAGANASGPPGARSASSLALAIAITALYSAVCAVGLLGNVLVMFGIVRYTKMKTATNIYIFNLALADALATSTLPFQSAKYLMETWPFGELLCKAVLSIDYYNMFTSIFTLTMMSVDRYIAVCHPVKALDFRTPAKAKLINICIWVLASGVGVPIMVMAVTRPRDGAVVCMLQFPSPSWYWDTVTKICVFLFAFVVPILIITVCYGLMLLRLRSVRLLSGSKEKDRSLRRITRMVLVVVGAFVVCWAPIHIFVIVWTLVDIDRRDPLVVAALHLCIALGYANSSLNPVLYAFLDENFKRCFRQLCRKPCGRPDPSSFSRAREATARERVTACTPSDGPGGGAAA

Row | Structure (SMILES) | EC50
1 | Cc1ccc(O)c(C(=O)/C=C/c2ccc3c(c2)OCCO3)c1 | > 92.5 µM (inactive)
2 | CC(=O)Nc1cc(-c2ccccc2)cn2c(-c3cccc(C(C)=O)c3)cnc12 | > 64.6 µM (inactive)
3 | CCN1/C(=C/c2ccc3cc(C)ccc3[n+]2CC)Sc2cc(C)c(C)cc21 | > 10.3 µM (inactive)
4 | CCOCCCN(Cc1ccco1)C(=O)c1cc2c(=O)[nH]c3ccc(C)cc3c2s1 | > 64.6 µM (inactive)
5 | O=C(Nc1cccc(NC(=S)NC(=O)c2cccs2)c1)c1ccccc1 | > 92.5 µM (inactive)
6 | Cc1cccc(C)c1-n1cccc1/C=C1\SC(=S)N(c2cccc(C(=O)O)c2)C1=O | > 92.5 µM (inactive)
7 | O=C(NC(c1ccc(Cl)cc1)c1ccccn1)C1CCN(CCOc2ccc(Cl)cc2Cl)CC1 (stereo not given) | > 92.4 µM (inactive)
8 | COc1cc(-c2cc(NC=O)c3ncc(-c4ccccc4)n3c2)cc(OC)c1OC | > 64.6 µM (inactive)
9 | CC(=O)Nc1cc(-c2ccccc2N(C)C)cn2c(-c3ccccc3)cnc12 | > 92.4 µM (inactive)
10 | CCCCCCCCCCCCCCCC[N+](C)(C)Cc1ccc(F)cc1 | > 92.5 µM (inactive)
11 | CCN1C(=O)/C(=C2/Sc3ccc(OC)cc3N2C)SC1=Nc1cccc(O)c1 | > 92.5 µM (inactive)
12 | CCC(C)c1ccc(NC(=S)NC2CCN(Cc3ccccc3)CC2)cc1 (stereo not given) | > 64.6 µM (inactive)
13 | Cc1ccc(Sc2ccc(NC(=O)CCl)cc2)cc1C | inactive
14 | CC(=O)Nc1cc(-c2ccc(C(=O)NC3CC3)cc2)cn2c(-c3cccc(C(F)(F)F)c3)cnc12 | > 64.6 µM (inactive)
15 | OC(CNCCc1ccc(C(F)(F)F)cc1)COC(c1ccccc1)c1ccccc1 (stereo not given) | > 64.6 µM (inactive)
16 | CC(=O)Nc1cc(-c2ccccc2N(C)C)cn2c(-c3ccc(F)c(Cl)c3)cnc12 | > 64.6 µM (inactive)
17 | COc1cc(/C=C2\Oc3ccc(C#Cc4ccc(O)cc4)cc3C2=O)cc(OC)c1 | > 92.5 µM (inactive)
18 | C/C(=C\c1ccco1)C1C(C#N)=C(N)Oc2n[nH]c(-c3ccc(C)cc3)c21 (stereo not given) | > 64.6 µM (inactive)
19 | Cc1ccc(O)c(C(=O)/C=C/c2ccc3c(c2)OCCCO3)c1 | > 64.6 µM (inactive)
20 | NC(Cc1ccc(C(F)(F)F)cc1)c1csc(NC(=O)Nc2ccccc2Cl)n1 (stereo not given) | > 64.6 µM (inactive)
21 | Cc1cc(C)nc(Nc2nc(C(N)Cc3ccc(Cl)cc3)cs2)n1 (stereo not given) | > 92.5 µM (inactive)
22 | CC(=O)Nc1cc(-c2cccnc2)cn2c(-c3cccc(C(F)(F)F)c3)cnc12 | > 92.5 µM (inactive)
23 | COc1cccc(-c2cnc3c(NC(C)=O)cc(-c4ccc(C(=O)N5CCOCC5)cc4)cn23)c1 | > 64.6 µM (inactive)

Row | Structure (SMILES) | EC50
24 | Cc1ccccc1NC(=O)c1ccc(COc2ccc3c(C)cc(=O)oc3c2)cc1 | > 64.6 µM (inactive)
25 | CCN1CCN(Cc2ccc(NC(=O)c3cc(NC(=O)C(=O)c4c[nH]c5ccccc45)cc(OC)c3)cc2C(F)(F)F)CC1 | > 92.5 µM (inactive)
26 | Cc1ccc(NC(=O)c2ncn(CCCN3CCN(Cc4cccc5ccccc45)CC3)n2)cc1C | > 92.5 µM (inactive)
27 | CN(C)CCNC(=O)c1cccc(-c2cc(NC=O)c3ncc(-c4cccc(C(F)(F)F)c4)n3c2)c1 | > 92.5 µM (inactive)
28 | CC(C)c1ccc(NC(=O)CSc2ncccc2C(=O)Oc2cccc([N+](=O)[O-])c2)cc1 | > 92.5 µM (inactive)
29 | Cc1nnnn1/C(=C\c1ccccc1)C(=O)OCC(=O)Nc1ccc(Cl)cc1F | > 92.5 µM (inactive)
30 | CC(=O)Nc1cc(-c2cccc(F)c2)cn2c(-c3ccc(F)c(Cl)c3)cnc12 | > 64.6 µM (inactive)
31 | CCc1ccc(C2CC(c3ccc(F)cc3)Nc3nc(N)nn32)cc1 (stereo not given) | > 92.5 µM (inactive)
32 | CN(C)c1ccccc1-c1cc(NC=O)c2ncc(-c3cccc(C(F)(F)F)c3)n2c1 | > 64.6 µM (inactive)
33 | NC(c1csc(NC(=O)Nc2cccc(Cl)c2)n1)C1CCCCC1 (stereo not given) | > 92.5 µM (inactive)
34 | CCc1ccc(OCCNc2cc(N3CCNC(C)C3)ccc2[N+](=O)[O-])cc1 (stereo not given) | > 92.5 µM (inactive)
35 | COc1ccc(-c2cc(NC=O)c3ncc(-c4cccc(C(F)(F)F)c4)n3c2)cc1OC | > 64.6 µM (inactive)
36 | Cc1cc(C)c2nc(Nc3nc(-c4ccccc4)cc(=O)[nH]3)nc(C)c2c1 | > 92.5 µM (inactive)
37 | Cc1c(CN2CCC(CO)(CCOc3ccccc3)CC2)[nH]c2c(Cl)cccc12 | > 92.5 µM (inactive)
38 | Clc1ccc(Cn2ncc3c(N4CCN(c5ccccc5)CC4)ncnc32)cc1 | > 92.3 µM (inactive)
39 | NC(CCc1ccccc1)c1csc(Nc2ccc(C(=O)c3ccccc3)cc2)n1 (stereo not given) | > 92.5 µM (inactive)
40 | NC(Cc1ccc(C(F)(F)F)cc1)c1csc(NC(=O)Nc2ccccc2)n1 (stereo not given) | > 92.5 µM (inactive)
41 | COc1ccccc1-c1cc(NC=O)c2ncc(-c3ccc(F)cc3)n2c1 | > 92.4 µM (inactive)
42 | CCCCCCCCNS(=O)(=O)CCNCCc1ccccc1 | > 92.4 µM (inactive)
43 | COc1cccc(/C=C2/SC(=S)N(CCCC(=O)Nc3ccc(O)cc3)C2=O)c1 | > 92.5 µM (inactive)
44 | COc1ccc(C(NC(=O)C2CCN(CCOc3ccc(Cl)cc3Cl)CC2)c2cccs2)cc1 (stereo not given) | inactive
45 | CC(=O)Nc1cc(-c2ccccc2)cn2c(-c3ccc(F)c(Cl)c3)cnc12 | > 92.5 µM (inactive)
46 | COc1ccc2oc(=O)c(-c3csc(Nc4cccc(O)c4)n3)cc2c1 | > 92.4 µM (inactive)

Row | Structure (SMILES) | EC50
47 | Nc1ccc(C2(c3ccc(N)cc3)c3ccccc3-c3ccccc32)cc1 | > 92.5 µM (inactive)
48 | COc1ccccc1-c1cc(NC(C)=O)c2ncc(-c3ccccc3)n2c1 | > 92.4 µM (inactive)
49 | COc1ccc(-c2cc(NC=O)c3ncc(-c4ccccc4)n3c2)cc1OC | > 64.6 µM (inactive)
50 | COc1cc(O)c(CC=C(C)C)c(O)c1C(=O)CCc1ccc(O)cc1 | > 64.6 µM (inactive)
51 | Cc1ccc2sc(N(CCCN(C)C)C(=O)c3ccc(Br)s3)nc2c1C | > 64.6 µM (inactive)
52 | CC(=O)Nc1cc(-c2ccc(S(C)(=O)=O)cc2)cn2c(-c3ccc(F)c(Cl)c3)cnc12 | > 64.6 µM (inactive)
53 | CCCCCCOc1ccc(/C(C)=N/NC2=NCCN2)cc1 | > 92.4 µM (inactive)
54 | COc1ccc(-c2sc3ccccc3c2-c2ccc(OCCN(C)C)cc2)cc1 | > 92.5 µM (inactive)
55 | O=C1OC(c2ccccc2)(c2ccc(O)cc2)c2ccccc21 (stereo not given) | > 92.5 µM (inactive)
56 | COc1cc(NC(=O)COc2ccccc2[N+](=O)[O-])ccc1NC(=O)c1cccs1 | > 92.5 µM (inactive)
57 | COc1cccc(-c2cnc3c(NC=O)cc(-c4ccoc4)cn23)c1 | > 64.6 µM (inactive)
58 | CC12CCC3C(CC=C4CC(O)CCC43C)C1C/C(=C\c1ccccc1F)C2=O (stereo not given) | inactive
59 | CN(C)CCCN(C(=O)CCc1ccccc1)c1nc2ccc(Cl)cc2s1 | > 92.4 µM (inactive)
60 | CCCCCCCCCCOC(=O)Cn1c(COc2ccc(OC)cc2)[n+](C)c2ccccc21 | > 92.5 µM (inactive)
61 | NC(Cc1ccc(Cl)cc1)c1csc(NC(=O)Nc2ccccc2)n1 (stereo not given) | > 64.6 µM (inactive)
62 | Cc1ccc2nc(Nc3ccc4[nH]c(=O)[nH]c4c3)c(-n3nc(C)cc3C)nc2c1 | > 64.6 µM (inactive)
63 | Cc1ccc(C(=O)NCCNc2nc3cc(C)c(C)cc3cc2C)cc1 | > 64.6 µM (inactive)
64 | CC(=O)c1cccc(-c2cnc3c(NC=O)cc(-c4ccc(N(C)C)cc4)cn23)c1 | > 64.6 µM (inactive)
65 | FC(F)(F)c1cccnc1Oc1ccc(C2=NCCS2)cc1 | > 92.4 µM (inactive)
66 | CC(=O)Nc1cc(-c2ccc(N(C)C)cc2)cn2c(-c3ccc(F)c(Cl)c3)cnc12 | > 92.5 µM (inactive)
67 | COc1ccc2[nH]c3c(C)c4ccncc4c(C)c3c2c1 | > 64.7 µM (inactive)
68 | O=C(Nc1cc(-c2nc3ccccc3s2)ccc1Cl)c1ccc2c(c1)OCO2 | > 92.4 µM (inactive)
69 | Cc1ccc(OCC(=O)NC(=S)Nc2cccc(NC(=O)c3ccccc3)c2)cc1 | > 64.6 µM (inactive)

Row | Structure (SMILES) | EC50
70 | Cc1ccc(C(=O)Nc2nc(C(N)Cc3ccc(C(F)(F)F)cc3)cs2)cc1 (stereo not given) | > 64.6 µM (inactive)
71 | NC(c1ccccc1)c1csc(NC(=O)Nc2ccccc2Oc2ccccc2)n1 (stereo not given) | > 92.5 µM (inactive)
72 | COc1ccc(-c2csc(C3=C(O)CN(Cc4ccc(Cl)cc4)C3=N)n2)cc1OC | > 64.6 µM (inactive)
73 | N#C/C(=C\c1cn(CCOc2ccccc2F)c2ccccc12)C(=O)NCc1cccs1 | > 92.4 µM (inactive)
74 | CC(=O)Nc1cc(-c2ccccc2)cn2c(-c3ccc(F)cc3)cnc12 | > 64.6 µM (inactive)
75 | CCN1CCN(Cc2ccc(NC(=O)c3ccc(C)c(NC(=O)C(=O)c4c[nH]c5ccccc45)c3)cc2C(F)(F)F)CC1 | > 10.3 µM (inactive) and > 92.5 µM (inactive)
76 | Clc1ccc(C[n+]2c(-c3ccccc3)cc(-c3ccccc3)cc2-c2ccccc2)cc1 | > 92.5 µM (inactive)
77 | Cc1ccc(NC(=S)NC(=O)c2ccc(-c3ccc(Cl)cc3)o2)c(O)c1 | > 64.6 µM (inactive)
78 | O=C(CSc1ccccc1)Nc1nnc(/C=C/c2ccccc2)s1 | > 92.5 µM (inactive)
79 | Cc1ccccc1-c1nc(-c2ccc(NC(=O)c3ccc(Br)o3)cc2)no1 | > 92.5 µM (inactive)
80 | CC1=NNC(=O)/C1=C\c1cn(-c2ccccc2)nc1-c1ccc(Cl)cc1 | > 92.5 µM (inactive)
81 | CCCCNc1c(-c2cccc(-c3cc(C(C)=O)cs3)c2)nc2ccc(C)cn12 | > 64.6 µM (inactive)
82 | CCSc1nnc(NC(=O)c2csc3c2CCCC3)s1 | > 92.5 µM (inactive)
83 | OC(CNCCc1ccc(C(F)(F)F)cc1)COc1cccc2ccccc12 (stereo not given) | > 92.5 µM (inactive)
84 | Cc1cccc(NC(=S)NC(=O)C(c2ccccc2)c2ccccc2)n1 | > 92.5 µM (inactive)
85 | Oc1ccc(N2CCN(c3ncnc4sc(-c5ccccc5)cc34)CC2)cc1 | > 92.4 µM (inactive)
86 | O=C(NC(c1ccc(Cl)cc1)c1cccnc1)C1CCN(CCOc2ccc(Cl)cc2Cl)CC1 (stereo not given) | > 92.4 µM (inactive)
87 | COc1ccc(-c2cc(NC(C)=O)c3ncc(-c4cccc(C(F)(F)F)c4)n3c2)c(OC)c1 | > 92.5 µM (inactive)
88 | O=C(NC(c1ccccc1)c1ccc2ccccc2n1)C1CCN(CCOc2ccc(Cl)cc2Cl)CC1 (stereo not given) | inactive
89 | COc1cccc2sc(N(CCCN(C)C)C(=O)C(c3ccccc3)c3ccccc3)nc12 | > 64.6 µM (inactive)
90 | CC1CCC(C(C)C)C(OC(=O)C[n+]2cc(-c3ccc(Cl)cc3)n3c2CCCCC3)C1 (stereo not given) | > 92.5 µM (inactive)
